Results taken from US12252524B2, “GIP/GLP1 co-agonist compounds” (Eli Lilly and Company, priority 2018, dated 2025).
Numbered stars: 1 amine (or outer) side, 2 acyl side, 3 side chain; on linkers, the order of the positions; unused ones are H or OH. Square brackets hold non-standard residues; d marks the D form. Side chains are listed from the residue outwards. Peptide text beside a SMILES is read from it. * marks the point of attachment. C20 diacid = O=C(O)CCCCCCCCCCCCCCCCCCC(=O)*; γGlu = O=C(O)[C@H](CCC(=O)[*:2])N[*:1]; αMeL = CC(C)C[C@](C)(N)C(=O)O; AEEA = NCCOCCOCC(=O)O; Aib = CC(C)(N)C(=O)O

Assays:
[1] = target: T1, human Gcg receptor (Homo sapiens, UniProt P47871); test: [125I]-Glucagon binding (SPA), human Gcg receptor; details: read-out: hGLcgR Ki, nM (SEM, n)
T1 construct: expressed in transfected cells; crude membranes
In short: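 Scintillation counts are taken after membranes and WGA beads incubate and settle for 12 hours at room temperature. Buffer is 25 mM HEPES, pH 7.4, with CaCl2, MgCl2, bacitracin and Tween-20. Ki values, from four-parameter IC50 fits, are geometric means over independent days.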

[2] = target: T2, human GIP receptor (Homo sapiens, UniProt P48546); test: [125I]-GIP binding (SPA), human GIP receptor; details: read-out: hGIPR Ki, nM (SEM, n)
T2 construct: expressed in transfected cells; crude membranes
T2 sequence (P48546 22-466): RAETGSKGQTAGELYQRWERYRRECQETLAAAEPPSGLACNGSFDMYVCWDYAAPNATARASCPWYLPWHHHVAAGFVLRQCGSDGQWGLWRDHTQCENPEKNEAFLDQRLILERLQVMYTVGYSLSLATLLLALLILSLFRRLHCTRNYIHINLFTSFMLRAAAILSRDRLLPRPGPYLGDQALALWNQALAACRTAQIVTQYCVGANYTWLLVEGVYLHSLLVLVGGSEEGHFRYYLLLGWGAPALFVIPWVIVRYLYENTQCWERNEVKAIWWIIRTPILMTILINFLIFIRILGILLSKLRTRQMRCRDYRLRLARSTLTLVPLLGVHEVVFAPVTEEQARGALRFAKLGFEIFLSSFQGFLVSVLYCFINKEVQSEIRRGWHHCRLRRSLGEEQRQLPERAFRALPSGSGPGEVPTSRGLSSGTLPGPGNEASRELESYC

[3] = target: human GLP-1 receptor (GLP-1R) (Homo sapiens, UniProt P43220); test: cAMP pharmacological functional assay in presence of casein, hGLP-1R; type: cell-based; details: HEK293 cells expressing hGLP-1R, 0.1% Casein, geometric mean; read-out: hGLP1R cAMP Rel EC50 nM (SEM, n)
[4] = target: T3, gastric inhibitory peptide receptor (GIPR) (Homo sapiens, UniProt P48546); test: cAMP pharmacological functional assay in presence of casein, hGIPR; type: cell-based; details: HEK293 cells expressing hGIPR, 0.1% Casein, geometric mean; read-out: hGIPR cAMP Rel EC50 nM (SEM, n)
T3 sequence (P48546 22-466): T2 sequence (P48546 22-466)

[5] = target: T4, human GLP-1R (Homo sapiens, UniProt P43220); test: [125I]-GLP-1 binding (SPA), human GLP-1 receptor; design: expressed in transfected cells; crude membranes; details: read-out: hGLP1R Ki, (nM) (SEM, n)
In short: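 Ki values are geometric means with SEM over independent replicates on different days, derived from IC50s fitted by four-parameter nonlinear regression. The assay used crude cell membranes in HEPES buffer, pH 7.4, containing CaCl2, MgCl2, bacitracin and TWEEN-20.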

[6] = target: T4, human GLP-1R; test: GLP-1R CHO cell β-arrestin recruitment assay; type: cell-based; design: host or cells: CHO-K1 PathHunter cells, assay-ready frozen; details: for EC50: CHO-K1 cells, PathHunter β-arrestin-2 recruitment, 0.1% casein, read-out: hGLP1R B-Arrestin2 Rel EC50 uM (SEM, n); for hGLP1R B-Arrestin2 % Top: normalized to GLP-1 maximum control
In short: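 PathHunter CHO-K1 cells with ProLink-tagged human GLP-1R and enzyme-acceptor-tagged β-arrestin-2 treated with serially diluted peptides in assay buffer containing 0.1% hydrolyzed casein, 90 min at 37 °C.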

[7] = target: T4, human GLP-1R; test: GLP-1R HEK293 cell membrane [35S]GTPγS binding assay; type: biochemical; design: expressed in transfected cells; host or cells: HEK293 cells expressing human GLP-1R; membranes; details: HEK293 cell membranes expressing human GLP-1R, [35S]GTPγS binding; read-out: hGLP1R GTPgS Rel EC50 nM (SEM, n)
In short: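 Membranes from HEK293 cells expressing the receptor incubated with peptide and […] [35S]GTPγS in HEPES pH 7.4 buffer with NaCl, MgCl2, saponin and BSA, 30 min at room temperature. Gαs-bound label captured by anti-Gαs antibody/SPA beads and counted; EC50 from four-parameter logistic fit.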

T1 sequence (P47871 26-477): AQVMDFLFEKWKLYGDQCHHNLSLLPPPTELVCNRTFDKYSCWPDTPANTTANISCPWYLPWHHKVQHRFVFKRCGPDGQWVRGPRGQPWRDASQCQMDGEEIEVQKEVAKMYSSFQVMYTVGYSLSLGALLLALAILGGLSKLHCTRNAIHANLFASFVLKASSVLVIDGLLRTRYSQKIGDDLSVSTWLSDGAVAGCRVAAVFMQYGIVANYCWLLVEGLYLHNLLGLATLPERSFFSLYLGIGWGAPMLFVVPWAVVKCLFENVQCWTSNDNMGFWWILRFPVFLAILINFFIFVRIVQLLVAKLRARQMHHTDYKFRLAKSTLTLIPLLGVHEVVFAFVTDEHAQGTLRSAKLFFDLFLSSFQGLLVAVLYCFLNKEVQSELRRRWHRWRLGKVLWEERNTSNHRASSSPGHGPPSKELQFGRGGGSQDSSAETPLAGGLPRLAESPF
T4 sequence (P43220 24-463): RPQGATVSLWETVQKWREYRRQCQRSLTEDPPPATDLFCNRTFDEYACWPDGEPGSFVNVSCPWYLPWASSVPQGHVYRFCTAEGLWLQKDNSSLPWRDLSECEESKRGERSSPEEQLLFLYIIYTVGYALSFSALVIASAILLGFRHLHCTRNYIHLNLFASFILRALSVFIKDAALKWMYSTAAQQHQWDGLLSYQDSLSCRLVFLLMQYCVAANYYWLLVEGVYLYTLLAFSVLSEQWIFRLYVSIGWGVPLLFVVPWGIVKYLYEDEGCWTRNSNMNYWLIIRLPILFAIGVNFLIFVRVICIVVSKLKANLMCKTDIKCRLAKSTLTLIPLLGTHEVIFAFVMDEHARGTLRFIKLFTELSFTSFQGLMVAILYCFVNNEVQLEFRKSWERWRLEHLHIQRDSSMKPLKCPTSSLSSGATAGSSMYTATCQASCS
human GLP-1 receptor (GLP-1R), sequence (P43220 24-463): as above

Row | Compound | Ki [1] [nM] | Ki [2] [nM] | EC50 [3] [nM] | EC50 [4] [nM] | Ki [5] [nM] | EC50 [6] [µM] | hGLP1R B-Arrestin2 % Top [6] [%] | EC50 [7] [nM]
1 | CC[C@H](C)[C@H](NC(=O)[C@H](CC(C)C)NC(=O)[C@H](Cc1ccc(O)cc1)NC(=O)[C@@H](CCC(=O)O)NC(=O)[C@@H](NC(=O)[C@H](Cc1ccccc1)NC(=O)[C@H](C)NC(=O)C(C)(C)NC(=O)[C@H](CCC(N)=O)NC(=O)[C@H](C)NC(=O)[C@H](CCCCNC(=O)COCCOCCNC(=O)COCCOCCNC(=O)CC[C@H](NC(=O)CCCCCCCCCCCCCCCCCCC(=O)O)C(=O)O)NC(=O)[C@H](CCC(=O)O)NC(=O)[C@H](CC(=O)O)NC(=O)[C@H](CC(C)C)NC(=O)[C@](C)(CC(C)C)NC(=O)[C@@H](NC(=O)[C@H](CO)NC(=O)[C@H](Cc1ccc(O)cc1)NC(=O)[C@H](CC(=O)O)NC(=O)[C@H](CO)NC(=O)[C@@H](NC(=O)[C@H](Cc1ccccc1)NC(=O)[C@@H](NC(=O)CNC(=O)[C@H](CCC(=O)O)NC(=O)C(C)(C)NC(=O)[C@@H](N)Cc1ccc(O)cc1)[C@@H](C)O)[C@@H](C)O)[C@@H](C)CC)[C@@H](C)CC)C(=O)N[C@@H](C)C(=O)NCC(=O)NCC(=O)N1CCC[C@H]1C(=O)N[C@@H](CO)C(=O)N[C@@H](CO)C(=O)NCC(=O)N[C@@H](C)C(=O)N1CCC[C@H]1C(=O)N1CCC[C@H]1C(=O)N1CCC[C@H]1C(=O)N[C@@H](CO)C(N)=O [Example 343] (H-Y[Aib]EGTFTSDYSI[αMeL]LDEK([AEEA-AEEA-γGlu-C20 diacid])AQ[Aib]AFI[dE]YLIAGGPSSGAPPPS-NH2) | > 1070 | 0.0374 | 0.124 | 0.0422 | 13.3 | 0.0455 | 41.4 | 0.522
2 | CC[C@H](C)[C@H](NC(=O)[C@H](CC(C)C)NC(=O)[C@](C)(Cc1ccc(O)cc1)NC(=O)[C@H](CCC(=O)O)NC(=O)[C@@H](NC(=O)[C@H](Cc1ccccc1)NC(=O)[C@H](CCC(=O)O)NC(=O)C(C)(C)NC(=O)[C@H](CCC(N)=O)NC(=O)[C@H](C)NC(=O)[C@H](CCCCNC(=O)COCCOCCNC(=O)COCCOCCNC(=O)CC[C@H](NC(=O)CCCCCCCCCCCCCCCCCCC(=O)O)C(=O)O)NC(=O)[C@H](CCCN)NC(=O)[C@H](CC(=O)O)NC(=O)[C@H](CC(C)C)NC(=O)[C@](C)(CC(C)C)NC(=O)[C@@H](NC(=O)[C@H](CO)NC(=O)[C@H](Cc1ccc(O)cc1)NC(=O)[C@H](CC(=O)O)NC(=O)[C@H](CO)NC(=O)[C@@H](NC(=O)[C@H](Cc1ccccc1)NC(=O)[C@@H](NC(=O)CNC(=O)[C@H](CCC(=O)O)NC(=O)C(C)(C)NC(=O)[C@H](N)Cc1ccc(O)cc1)[C@@H](C)O)[C@@H](C)O)[C@@H](C)CC)[C@@H](C)CC)C(=O)N[C@@H](C)C(=O)NCC(=O)NCC(=O)N1CCC[C@H]1C(=O)N[C@@H](CO)C(=O)N[C@@H](CO)C(=O)NCC(=O)N[C@@H](C)C(=O)N1CCC[C@H]1C(=O)N1CCC[C@H]1C(=O)N1CCC[C@H]1C(=O)N[C@@H](CO)C(N)=O [Example 293] | 668 | 0.0775 | 0.132 | 0.0562 | 1.64 | 0.00719 | 29.5 | 0.368
3 | CC[C@H](C)[C@H](NC(=O)[C@H](CC(C)C)NC(=O)[C@H](Cc1ccc(O)cc1)NC(=O)[C@H](CCC(=O)O)NC(=O)[C@@H](NC(=O)[C@H](Cc1ccccc1)NC(=O)[C@H](C)NC(=O)C(C)(C)NC(=O)[C@H](CCC(N)=O)NC(=O)[C@H](C)NC(=O)[C@H](CCCCNC(=O)COCCOCCNC(=O)COCCOCCNC(=O)CC[C@H](NC(=O)CCCCCCCCCCCCCCCCC(=O)O)C(=O)O)NC(=O)[C@H](CCCCN)NC(=O)[C@H](CC(=O)O)NC(=O)[C@H](CC(C)C)NC(=O)[C@H](CC(C)C)NC(=O)[C@@H](NC(=O)[C@H](CO)NC(=O)[C@H](Cc1ccc(O)cc1)NC(=O)[C@H](CC(=O)O)NC(=O)[C@H](CO)NC(=O)[C@@H](NC(=O)[C@H](Cc1ccccc1)NC(=O)[C@@H](NC(=O)CNC(=O)[C@H](CCC(=O)O)NC(=O)C(C)(C)NC(=O)[C@@H](N)Cc1ccc(O)cc1)[C@@H](C)O)[C@@H](C)O)[C@@H](C)CC)[C@@H](C)CC)C(=O)N[C@@H](CCC(=O)O)C(=O)NCC(=O)NCC(=O)N1CCC[C@H]1C(=O)N[C@@H](CO)C(=O)N[C@@H](CO)C(=O)NCC(=O)N[C@@H](C)C(=O)N1CCC[C@H]1C(=O)N1CCC[C@H]1C(=O)N1CCC[C@H]1C(=O)N[C@@H](CO)C(N)=O [Example 315] | 539 | 0.0677 | 0.0651 | 0.0408 | 2.28 | 0.0199 | 25.4 | 0.601
4 | CC[C@H](C)[C@H](NC(=O)[C@H](CC(C)C)NC(=O)[C@H](Cc1ccc(O)cc1)NC(=O)[C@H](CCC(=O)O)NC(=O)[C@@H](NC(=O)[C@H](Cc1ccccc1)NC(=O)[C@H](CCC(=O)O)NC(=O)C(C)(C)NC(=O)[C@H](CCC(N)=O)NC(=O)[C@H](C)NC(=O)[C@H](CCCCNC(=O)COCCOCCNC(=O)COCCOCCNC(=O)CC[C@H](NC(=O)CCCCCCCCCCCCCCCCCCC(=O)O)C(=O)O)NC(=O)[C@H](CCC(=O)O)NC(=O)[C@H](CC(=O)O)NC(=O)[C@H](CC(C)C)NC(=O)[C@](C)(CC(C)C)NC(=O)[C@@H](NC(=O)[C@H](CO)NC(=O)[C@H](Cc1ccc(O)cc1)NC(=O)[C@H](CC(=O)O)NC(=O)[C@H](CO)NC(=O)[C@@H](NC(=O)[C@H](Cc1ccccc1)NC(=O)[C@@H](NC(=O)CNC(=O)[C@H](CCC(=O)O)NC(=O)C(C)(C)NC(=O)[C@H](N)Cc1ccc(O)cc1)[C@@H](C)O)[C@@H](C)O)[C@@H](C)CC)[C@@H](C)CC)C(=O)N[C@@H](C)C(=O)NCC(=O)NCC(=O)N1CCC[C@H]1C(=O)N[C@@H](CO)C(=O)N[C@@H](CO)C(=O)NCC(=O)N[C@@H](C)C(=O)N1CCC[C@H]1C(=O)N1CCC[C@H]1C(=O)N1CCC[C@H]1C(=O)N[C@@H](CO)C(N)=O [Example 342] (H-[dY][Aib]EGTFTSDYSI[αMeL]LDEK([AEEA-AEEA-γGlu-C20 diacid])AQ[Aib]EFIEYLIAGGPSSGAPPPS-NH2; N-terminus assumed) | > 1000 | 0.129 | 0.127 | 0.159 | 15.4 | 0.035 | 20.7 | 0.414
